In brackets after ≈: the same amount, converted by molar mass.
biological target: T1, Prostaglandin G/H synthase 2 (Ovis aries, UniProt P79208); experiment: Inhibition of recombinant ovine COX2 using arachidonic acid as substrate preincubated for 15 mins followed by arachidonic acid addition measured after 2 mins by ELISA; details: not given
T1 sequence (P79208 whole entry): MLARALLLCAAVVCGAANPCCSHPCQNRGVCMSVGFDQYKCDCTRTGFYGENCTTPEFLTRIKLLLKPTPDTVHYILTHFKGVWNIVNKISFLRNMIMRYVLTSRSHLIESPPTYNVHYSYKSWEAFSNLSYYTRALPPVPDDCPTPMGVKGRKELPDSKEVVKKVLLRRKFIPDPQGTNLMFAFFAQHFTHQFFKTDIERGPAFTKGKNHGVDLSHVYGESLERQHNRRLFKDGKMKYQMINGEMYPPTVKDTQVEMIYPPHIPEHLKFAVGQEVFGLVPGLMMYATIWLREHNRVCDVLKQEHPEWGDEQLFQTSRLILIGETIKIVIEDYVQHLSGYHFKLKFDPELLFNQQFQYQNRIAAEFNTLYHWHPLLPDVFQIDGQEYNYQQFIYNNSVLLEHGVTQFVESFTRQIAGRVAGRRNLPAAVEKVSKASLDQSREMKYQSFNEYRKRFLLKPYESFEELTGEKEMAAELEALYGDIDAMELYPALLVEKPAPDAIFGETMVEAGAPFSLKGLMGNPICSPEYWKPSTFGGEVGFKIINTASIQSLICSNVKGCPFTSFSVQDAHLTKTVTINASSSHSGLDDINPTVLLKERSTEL

Row | Compound | IC50 [µM]
1 | C[C@@H]1O[C@@H](O[C@@H]2[C@@H](O)[C@H](OCCc3ccc(O)c(O)c3)O[C@H](CO)[C@H]2OC(=O)/C=C/c2ccc(O)c(O)c2)[C@H](O)[C@H](O[C@@H]2OC[C@](O)(CO)[C@H]2O)[C@H]1O | 21.5
2 | CC(=O)OC[C@H]1O[C@@H](OCCc2ccc(O)c(O)c2)[C@H](O[C@@H]2OC[C@](O)(CO)[C@H]2O)[C@@H](O[C@@H]2O[C@@H](C)[C@H](O)[C@@H](O)[C@H]2O)[C@@H]1OC(=O)/C=C/c1ccc(O)c(O)c1 | 16
3 | C[C@@H]1O[C@@H](O[C@@H]2[C@@H](O)[C@H](OCCc3ccc(O)cc3)O[C@H](CO)[C@H]2OC(=O)/C=C/c2ccc(O)c(O)c2)[C@H](O)[C@H](O[C@@H]2OC[C@](O)(CO)[C@H]2O)[C@H]1O | 36
4 | O=C(OC[C@@]1(O)CO[C@@H](O[C@H]2[C@H](Oc3ccc(O)c(O)c3)O[C@H](CO)[C@@H](O)[C@@H]2O)[C@@H]1O)c1ccc(O)c(O)c1 | 24.7
5 | C[C@@H]1O[C@@H](O[C@@H]2[C@@H](O)[C@H](OCCc3ccc(O)c(O)c3)O[C@H](CO)[C@H]2OC(=O)/C=C/c2ccc(O)c(O)c2)[C@H](O)[C@H](O)[C@H]1O [ACETOSIDE] | 11.3
6 | COc1cc(O[C@@H]2O[C@H](CO)[C@@H](O)[C@H](O)[C@H]2O[C@@H]2OC[C@](O)(COC(=O)c3ccc(O)c(O)c3)[C@H]2O)ccc1O | 29.2
7 | C[C@@H]1O[C@@H](O[C@@H]2[C@@H](O[C@@H]3OC[C@](O)(CO)[C@H]3O)[C@H](OCCc3ccc(O)c(O)c3)O[C@H](CO)[C@H]2OC(=O)/C=C/c2ccc(O)c(O)c2)[C@H](O)[C@H](O)[C@H]1O | 18.2

Now from value to molecule:

Row | IC50 [µM] | Compound
8 | 19.6 | CC(=O)OC[C@H]1O[C@@H](OCCc2ccc(O)c(O)c2)[C@H](O)[C@@H](O[C@@H]2O[C@@H](C)[C@H](O)[C@@H](O[C@@H]3OC[C@](O)(CO)[C@H]3O)[C@H]2O)[C@@H]1OC(=O)/C=C/c1ccc(O)c(O)c1
9 | 9.4 | CC(=O)OC[C@H]1O[C@@H](OCCc2ccc(O)c(O)c2)[C@H](O)[C@@H](O[C@@H]2O[C@@H](C)[C@H](O)[C@@H](O)[C@H]2O)[C@@H]1OC(=O)/C=C/c1ccc(O)c(O)c1

biological target: T2, Prostaglandin G/H synthase 2 (Homo sapiens, UniProt P35354); experiment: Inhibition of COX2 (unknown origin); details: not given
T2 sequence (P35354 whole entry): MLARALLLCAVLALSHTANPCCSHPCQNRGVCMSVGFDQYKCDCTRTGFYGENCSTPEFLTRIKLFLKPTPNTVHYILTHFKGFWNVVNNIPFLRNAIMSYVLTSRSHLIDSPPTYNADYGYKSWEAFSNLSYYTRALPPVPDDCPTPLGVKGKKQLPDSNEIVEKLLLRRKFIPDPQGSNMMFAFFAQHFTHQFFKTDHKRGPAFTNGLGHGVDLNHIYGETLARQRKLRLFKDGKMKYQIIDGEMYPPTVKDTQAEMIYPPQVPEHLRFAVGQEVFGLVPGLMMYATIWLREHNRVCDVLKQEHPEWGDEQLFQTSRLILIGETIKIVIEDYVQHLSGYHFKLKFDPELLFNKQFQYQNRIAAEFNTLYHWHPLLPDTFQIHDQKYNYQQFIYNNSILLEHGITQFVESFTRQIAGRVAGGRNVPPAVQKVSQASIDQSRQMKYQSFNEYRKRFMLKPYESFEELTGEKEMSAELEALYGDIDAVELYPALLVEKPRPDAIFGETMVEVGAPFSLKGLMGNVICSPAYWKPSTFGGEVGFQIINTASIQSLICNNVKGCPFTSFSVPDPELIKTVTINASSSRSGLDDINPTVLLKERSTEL

Row | Compound | IC50 [µM]
10 | COOC[C@@]1(C)CC[C@]2(C)CC[C@]3(C)[C@@H]4CCc5cc(O)c(O)cc5[C@]4(C)CC[C@@]3(C)C2C1 (stereo partly specified) | 430

biological target: T3, Prostaglandin G/H synthase 2 (Homo sapiens) (UniProt P35354); experiment: Inhibition of human COX2 at 10 uM using arachidonic acid as substrate measured for 300 secs intervals from 3 to 10 secs in presence of hematin by fluorescence assay relative to control; details: not given
T3 sequence (whole entry): T2 sequence (P35354 whole entry)

Row | Compound | inhibition [%]
11 | COc1cc(OC)c(C(=O)/C=C/c2ccc(O)cc2)c(OC)c1 | 62.2
12 | COc1cc(OC)c(C(=O)CCc2ccc(O)cc2)c(OC)c1 | 54.4
13 | COc1cc(O)c2c(c1)OCC1(Cc3c1cc(OC)c(OC)c3O)C2=O (stereo unspecified) | 101

The remaining lines, values ahead:

Row | inhibition [%] | Compound
14 | 20.9 | COc1cc(OC(C)=O)c2c(c1)O[C@H](OC(C)=O)[C@@]1(Cc3cc4c(cc31)COC4)C2=O
15 | 71.4 | COc1ccc(CC2(O)COc3cc(O)cc(O)c3C2=O)cc1 (stereo unspecified)
16 | 13.3 | O=C1c2c(O)cc(O)cc2OCC1Cc1ccc(O)cc1 (stereo unspecified)
17 | 89 | COc1cc(OC(C)=O)c2c(c1)O[C@H](OC(C)=O)[C@]1(Cc3cc4c(cc31)COC4)C2=O
18 | 20.9 | COc1ccc(CC2COc3cc(O)cc(O)c3C2=O)cc1 (stereo unspecified)
19 | 73.8 | COc1cc(O)cc2c1C(=O)C(Cc1ccc(O)cc1)CO2 (stereo unspecified)

system: RAW264.7; experiment: Antiinflammatory activity in mouse RAW264.7 cells assessed as inhibition of LPS-induced nitric oxide production after 24 hrs by Griess reagent based assay; type: functional, cell-based; details: RAW264.7, 24 h

Row | Compound | IC50 [µg/mL]
20 | O=C(/C=C/c1ccc(O)cc1)c1ccc(O)cc1O [ISOLIQUIRITIGENIN] | 3.4 (≈ 13.3 µM)
21 | COc1cc(O)cc(-c2cc3ccc(O)cc3o2)c1C/C=C(\C)CCC=C(C)C | 5.3 (≈ 13.5 µM)
22 | COc1c(-c2ccc(O)c(O)c2)oc2cc(O)cc(O)c2c1=O [3-O-METHYLQUERCETIN] | 3.5 (≈ 11.1 µM)
23 | CC1=CCc2ccc3cc(-c4cc(O)cc(O)c4)oc3c2OC1 | 19.8 (≈ 64.2 µM)
24 | Oc1ccc(/C=C/c2cc(O)cc(O)c2)cc1 [RESVERATROL] | 24.1 (≈ 106 µM)
25 | CC1(C)C=Cc2c(cc(O)cc2-c2cc3ccc(O)cc3o2)O1 | 18.5 (≈ 60 µM)
26 | CC(C)=CCc1c(O)ccc(C(=O)/C=C/c2ccc(O)c([C@H]3C=C(C)CC(c4ccc(O)cc4O)[C@H]3C(=O)c3ccc(O)cc3O)c2O)c1O (stereo partly specified) | 8.5 (≈ 12.5 µM)

Now from value to molecule:

Row | IC50 [µg/mL] | Compound
27 | 7.9 (≈ 27.6 µM) | COc1cc(O)cc(-c2cc3cc(O)c(OC)cc3o2)c1
28 | 3.5 (≈ 8.28 µM) | C=C(C)[C@H](O)CC/C(C)=C/Cc1c(O)cc2oc(-c3ccc(O)cc3)cc(=O)c2c1O
29 | 10.2 (≈ 37.5 µM) | O=C(/C=C/c1ccc(O)cc1O)c1ccc(O)cc1O
30 | 7.5 (≈ 26.2 µM) | COc1cc(O)cc(-c2cc3cc(OC)c(O)cc3o2)c1

system: RAW264.7; experiment: Antiinflammatory activity in mouse RAW264.7 cells assessed as inhibition of LPS-induced nitric oxide production; type: functional, cell-based; details: not given

Row | Compound | IC50
31 | CC(C)[C@@H](C)/C=C/[C@@H](C)[C@H]1CC[C@@H]2[C@]1(C)CC[C@H]1[C@]23C=C[C@]2(C[C@@H](O)CC[C@]12C)OO3 [ERGOSTEROL PEROXIDE] | 28.7 µM
32 | C=C(C)[C@@H]1CC[C@]2(C(=O)O)CC[C@]3(C)[C@H](CC[C@@H]4[C@@]5(C)CC[C@H](O)C(C)(C)[C@@H]5CC[C@]43C)[C@@H]12 [BETULINIC ACID] | 42.5 µM
33 | O=C1CC(c2ccc(O)cc2O)Oc2cc(O)cc(O)c21 (stereo unspecified) [STEPPOGENIN] | 12.1 µg/mL
34 | C=C(C)C(O)Cc1c(-c2ccc(O)cc2O)oc2c(CC=C(C)C)c(O)cc(O)c2c1=O (stereo unspecified) | 7.3 µg/mL
35 | CC(C)=CCc1c(O)ccc(C(=O)/C=C/c2ccc(O)cc2)c1O [ISOBAVACHALCONE] | 3.5 µg/mL
36 | CC[C@H](CC[C@@H](C)[C@H]1CC[C@H]2[C@@H]3C[C@H](O)C4=CC(=O)CC[C@]4(C)[C@H]3CC[C@]12C)C(C)C | 86.7 µM
37 | CC(C)=CCC1C(=O)c2c(O)cc3c(c2OC1c1ccc(O)cc1O)C=CC(C)(C)O3 (stereo unspecified) | 5.3 µg/mL
38 | CC(C)=CCC/C(C)=C/Cc1c(O)cc2oc(-c3ccc(O)cc3)cc(=O)c2c1O | 4.1 µg/mL
39 | CC(C)=CCc1c(-c2ccc(O)cc2O)oc2cc(O)cc(O)c2c1=O [ALBANIN A] | 9.2 µg/mL
40 | CC[C@H](CC[C@@H](C)[C@H]1CC[C@H]2[C@@H]3CCC4=CC(=O)CC[C@]4(C)[C@H]3CC[C@]12C)C(C)C | 15.9 µM
41 | CC(C)=CCc1c(O)ccc(C(=O)[C@H]2[C@@H](c3cc(O)cc4oc(-c5ccc(O)cc5O)cc34)C=C(C)C[C@@H]2c2ccc(O)cc2O)c1O | 12.8 µg/mL
42 | CC(C)=CCc1c(-c2ccc(O)cc2O)oc2c(CC=C(C)C)c(O)cc(O)c2c1=O [KUWANON C] | 9.6 µg/mL
43 | CC(C)=CCC1C(=O)c2c(O)cc3c(c2OC1c1ccc(O)cc1O)C=CC(C)(CO)O3 (stereo unspecified) | 5.2 µg/mL

Next, values leading:

Row | IC50 | Compound
44 | 2.2 µg/mL | CC(C)=CCc1c(-c2ccc(O)cc2O)oc2cc3c(c(O)c2c1=O)CC(C(C)(C)O)O3 (stereo unspecified)
45 | 77.4 µM | CC[C@H](CC[C@@H](C)[C@H]1CC[C@H]2[C@@H]3CC=C4C[C@@H](O[C@@H]5O[C@H](CO)[C@@H](O)[C@H](O)[C@H]5O)CC[C@]4(C)[C@H]3CC[C@]12C)C(C)C [SITOGLUSIDE]
46 | 6.6 µg/mL | C=C(C)C(O)Cc1c(O)cc(O)c2c(=O)c(CC=C(C)C)c(-c3ccc(O)cc3O)oc12 (stereo unspecified)
47 | 7.4 µg/mL | CC(C)=CCc1c(-c2ccc(O)cc2O)oc2cc3c(c(O)c2c1=O)C=CC(C)(C)O3 [CUDRAFLAVONE B]
48 | 54.1 µM | COc1cc(/C=C/C(=O)O[C@H]2CC[C@]3(C)[C@H]4CC=C5[C@@H]6CC(C)(C)CC[C@]6(C(=O)O)CC[C@@]5(C)[C@]4(C)CC[C@H]3C2(C)C)ccc1O
49 | 4.3 µg/mL | C=C(C)C(=O)Cc1c(-c2ccc(O)cc2O)oc2c(CC=C(C)C)c(O)cc(O)c2c1=O
50 | 6.1 µg/mL | O=c1cc(-c2ccc(O)cc2O)oc2cc(O)cc(O)c12 [NORARTOCARPETIN]
51 | 10.3 µg/mL | O=C1CC(c2ccc(O)cc2O)Oc2cc(O)ccc21 (stereo unspecified)
